Test results published in US8119148B2, “Suspension comprising oxcarbazepine” (Novartis Pharmaceuticals Corporation, priority 1999, dated 2012).
Values after ≈ are worked out from the molar mass of the structure shown.

Assay: Solubility in water
Format: physicochemical
Conditions: pH 5.8, water, at 25° C. and pH of 5.8 to 6.0
Method: A wide range of container sizes may be employed. Container size may be conveniently categorised as Low-Volume, e.g., 100 ml or less and High-Volume, e.g., above 100 ml and typically 250 ml.

`NC(=O)N1c2ccccc2CC(=O)c2ccccc21` [oxcarbazepine, 10,11-Dihydro-10-oxo-5H-di-benz[b,f]azepine-5-carboxamide] showed a solubility of 3200 to 4200 µg/mL (≈ 12.7 to 16.6 mM).
